Results from ChEMBL document CHEMBL4765227, “Hit to lead optimization of a series of N-[4-(1,3-benzothiazol-2-yl)phenyl]acetamides as monoacylglycerol lipase inhibitors with potential anticancer activity” (Eur J Med Chem, 2016).

Experiments:
Format in all cases: functional
Settings in all cases: read-out: GI
NCI-H522 = assay: Growth inhibition of human NCI-H522 cells at 10 uM incubated for 48 hrs by sulforhodamine B assay relative to control
NCI/ADR-RES = assay: Growth inhibition of human NCI/ADR-RES cells at 10 uM incubated for 48 hrs by sulforhodamine B assay relative to control
NCI-H322M = assay: Growth inhibition of human NCI-H322M cells at 10 uM incubated for 48 hrs by sulforhodamine B assay relative to control
MOLT-4 = assay: Growth inhibition of human MOLT-4 cells at 10 uM incubated for 48 hrs by sulforhodamine B assay relative to control
Hs-578T = assay: Growth inhibition of human Hs-578T cells at 10 uM incubated for 48 hrs by sulforhodamine B assay relative to control
CAKI-1 = assay: Growth inhibition of human CAKI-1 cells at 10 uM incubated for 48 hrs by sulforhodamine B assay relative to control
Malme-3M = assay: Growth inhibition of human Malme-3M cells at 10 uM incubated for 48 hrs by sulforhodamine B assay relative to control
SNB-75 = assay: Growth inhibition of human SNB-75 cells at 10 uM incubated for 48 hrs by sulforhodamine B assay relative to control
SF-539 = assay: Growth inhibition of human SF-539 cells at 10 uM incubated for 48 hrs by sulforhodamine B assay relative to control
SR = assay: Growth inhibition of human SR cells at 10 uM incubated for 48 hrs by sulforhodamine B assay relative to control
PC-3 = assay: Growth inhibition of human PC-3 cells at 10 uM incubated for 48 hrs by sulforhodamine B assay relative to control
SF-295 = assay: Growth inhibition of human SF-295 cells at 10 uM incubated for 48 hrs by sulforhodamine B assay relative to control
A549 = assay: Growth inhibition of human A549/ATCC cells at 10 uM incubated for 48 hrs by sulforhodamine B assay relative to control
LOX IMVI = assay: Growth inhibition of human LOX IMVI cells at 10 uM incubated for 48 hrs by sulforhodamine B assay relative to control
HOP-62 = assay: Growth inhibition of human HOP-62 cells at 10 uM incubated for 48 hrs by sulforhodamine B assay relative to control
U-251 = assay: Growth inhibition of human U-251 cells at 10 uM incubated for 48 hrs by sulforhodamine B assay relative to control
OVCAR-8 = assay: Growth inhibition of human OVCAR-8 cells at 10 uM incubated for 48 hrs by sulforhodamine B assay relative to control
HOP-92 = assay: Growth inhibition of human HOP-92 cells at 10 uM incubated for 48 hrs by sulforhodamine B assay relative to control
RPMI-8226 = assay: Growth inhibition of human RPMI-8226 cells at 10 uM incubated for 48 hrs by sulforhodamine B assay relative to control
OVCAR-4 = assay: Growth inhibition of human OVCAR-4 cells at 10 uM incubated for 48 hrs by sulforhodamine B assay relative to control
SF-268 = assay: Growth inhibition of human SF-268 cells at 10 uM incubated for 48 hrs by sulforhodamine B assay relative to control
NCI-H226 = assay: Growth inhibition of human NCI-H226 cells at 10 uM incubated for 48 hrs by sulforhodamine B assay relative to control
KM12 = assay: Growth inhibition of human KM12 cells at 10 uM incubated for 48 hrs by sulforhodamine B assay relative to control
UO-31 = assay: Growth inhibition of human UO-31 cells at 10 uM incubated for 48 hrs by sulforhodamine B assay relative to control
UACC-257 = assay: Growth inhibition of human UACC-257 cells at 10 uM incubated for 48 hrs by sulforhodamine B assay relative to control
HCT-116 = assay: Growth inhibition of human HCT-116 cells at 10 uM incubated for 48 hrs by sulforhodamine B assay relative to control
SN12C = assay: Growth inhibition of human SN12C cells at 10 uM incubated for 48 hrs by sulforhodamine B assay relative to control
OVCAR-5 = assay: Growth inhibition of human OVCAR-5 cells at 10 uM incubated for 48 hrs by sulforhodamine B assay relative to control
HCT-15 = assay: Growth inhibition of human HCT-15 cells at 10 uM incubated for 48 hrs by sulforhodamine B assay relative to control
MDA-MB-468 = assay: Growth inhibition of human MDA-MB-468 cells at 10 uM incubated for 48 hrs by sulforhodamine B assay relative to control
786-0 = assay: Growth inhibition of human 786-0 cells at 10 uM incubated for 48 hrs by sulforhodamine B assay relative to control
ACHN = assay: Growth inhibition of human ACHN cells at 10 uM incubated for 48 hrs by sulforhodamine B assay relative to control
RXF 393 = assay: Growth inhibition of human RXF 393 cells at 10 uM incubated for 48 hrs by sulforhodamine B assay relative to control
DU-145 = assay: Growth inhibition of human DU-145 cells at 10 uM incubated for 48 hrs by sulforhodamine B assay relative to control
SW-620 = assay: Growth inhibition of human SW-620 cells at 10 uM incubated for 48 hrs by sulforhodamine B assay relative to control
M14 = assay: Growth inhibition of human M14 cells at 10 uM incubated for 48 hrs by sulforhodamine B assay relative to control
COLO 205 = assay: Growth inhibition of human COLO 205 cells at 10 uM incubated for 48 hrs by sulforhodamine B assay relative to control
HL-60(TB) = assay: Growth inhibition of human HL-60(TB) cells at 10 uM incubated for 48 hrs by sulforhodamine B assay relative to control
MCF7 = assay: Growth inhibition of human MCF7 cells at 10 uM incubated for 48 hrs by sulforhodamine B assay relative to control
OVCAR-3 = assay: Growth inhibition of human OVCAR-3 cells at 10 uM incubated for 48 hrs by sulforhodamine B assay relative to control
NCI-H23 = assay: Growth inhibition of human NCI-H23 cells at 10 uM incubated for 48 hrs by sulforhodamine B assay relative to control
HT-29 = assay: Growth inhibition of human HT-29 cells at 10 uM incubated for 48 hrs by sulforhodamine B assay relative to control
MDA-MB-231 = assay: Growth inhibition of human MDA-MB-231 cells at 10 uM incubated for 48 hrs by sulforhodamine B assay relative to control
HCC 2998 = assay: Growth inhibition of human HCC 2998 cells at 10 uM incubated for 48 hrs by sulforhodamine B assay relative to control

O=C(Cn1c2ccccc2c2ccccc21)Nc1ccc(-c2nc3ccccc3s2)cc1
inhibition of growth at 10 µM (NCI-H522): 3.42%
inhibition of growth at 10 µM (NCI/ADR-RES): -1.93%
inhibition of growth at 10 µM (NCI-H322M): -5.2%
inhibition of growth at 10 µM (MOLT-4): 5.92%
inhibition of growth at 10 µM (Hs-578T): -14.2%
inhibition of growth at 10 µM (CAKI-1): 1.03%
inhibition of growth at 10 µM (Malme-3M): 6.83%
inhibition of growth at 10 µM (SNB-75): 3.22%
inhibition of growth at 10 µM (SF-539): 4.12%
inhibition of growth at 10 µM (SR): 15.7%
inhibition of growth at 10 µM (PC-3): -4.16%
inhibition of growth at 10 µM (SF-295): 3.61%
inhibition of growth at 10 µM (A549): 0.89%
inhibition of growth at 10 µM (LOX IMVI): 8.68%
inhibition of growth at 10 µM (HOP-62): -0.99%
inhibition of growth at 10 µM (U-251): 6.01%
inhibition of growth at 10 µM (OVCAR-8): -2.86%
inhibition of growth at 10 µM (HOP-92): -7.01%
inhibition of growth at 10 µM (RPMI-8226): -18%
inhibition of growth at 10 µM (OVCAR-4): -2.83%
inhibition of growth at 10 µM (SF-268): 6.55%
inhibition of growth at 10 µM (NCI-H226): 1.21%
inhibition of growth at 10 µM (KM12): 0.15%
inhibition of growth at 10 µM (UO-31): 12.8%
inhibition of growth at 10 µM (UACC-257): -1.24%
inhibition of growth at 10 µM (HCT-116): -7.02%
inhibition of growth at 10 µM (SN12C): -1.32%
inhibition of growth at 10 µM (OVCAR-5): 0.62%
inhibition of growth at 10 µM (HCT-15): -0.3%
inhibition of growth at 10 µM (MDA-MB-468): 83.4%
inhibition of growth at 10 µM (786-0): -1.17%
inhibition of growth at 10 µM (ACHN): -4.15%
inhibition of growth at 10 µM (RXF 393): -10.8%
inhibition of growth at 10 µM (DU-145): -2.93%
inhibition of growth at 10 µM (SW-620): -2.44%
inhibition of growth at 10 µM (M14): -14%
inhibition of growth at 10 µM (COLO 205): -8.95%
inhibition of growth at 10 µM (HL-60(TB)): -3.61%
inhibition of growth at 10 µM (MCF7): 67.4%
inhibition of growth at 10 µM (OVCAR-3): -4.48%
inhibition of growth at 10 µM (NCI-H23): 6.54%
inhibition of growth at 10 µM (HT-29): -6.06%
inhibition of growth at 10 µM (MDA-MB-231): 4.37%
inhibition of growth at 10 µM (HCC 2998): 0.28%

O=C(Cn1ccnc1)Nc1ccc(-c2nc3ccccc3s2)cc1
inhibition of growth at 10 µM (NCI-H522): 25.3%
inhibition of growth at 10 µM (NCI/ADR-RES): 11.8%
inhibition of growth at 10 µM (NCI-H322M): 1.71%
inhibition of growth at 10 µM (MOLT-4): 31.9%
inhibition of growth at 10 µM (Hs-578T): 13.1%
inhibition of growth at 10 µM (CAKI-1): 33.8%
inhibition of growth at 10 µM (SNB-75): 11.2%
inhibition of growth at 10 µM (SF-539): 18.7%
inhibition of growth at 10 µM (SR): 63.5%
inhibition of growth at 10 µM (PC-3): 34.1%
inhibition of growth at 10 µM (SF-295): 34.5%
inhibition of growth at 10 µM (A549): 29.7%
inhibition of growth at 10 µM (LOX IMVI): 26.6%
inhibition of growth at 10 µM (HOP-62): 16.2%
inhibition of growth at 10 µM (U-251): 28.1%
inhibition of growth at 10 µM (OVCAR-8): 19.7%
inhibition of growth at 10 µM (HOP-92): 24.2%
inhibition of growth at 10 µM (RPMI-8226): 48%
inhibition of growth at 10 µM (OVCAR-4): 65.2%
inhibition of growth at 10 µM (SF-268): 18.9%
inhibition of growth at 10 µM (NCI-H226): 33.4%
inhibition of growth at 10 µM (KM12): 15.6%
inhibition of growth at 10 µM (UO-31): 39.6%
inhibition of growth at 10 µM (UACC-257): 32.4%
inhibition of growth at 10 µM (HCT-116): 31.9%
inhibition of growth at 10 µM (SN12C): 15.4%
inhibition of growth at 10 µM (OVCAR-5): -3.81%
inhibition of growth at 10 µM (HCT-15): 13%
inhibition of growth at 10 µM (MDA-MB-468): 99.2%
inhibition of growth at 10 µM (786-0): 22%
inhibition of growth at 10 µM (ACHN): 9.7%
inhibition of growth at 10 µM (RXF 393): -2.19%
inhibition of growth at 10 µM (DU-145): 18.9%
inhibition of growth at 10 µM (SW-620): 0.17%
inhibition of growth at 10 µM (M14): 5.59%
inhibition of growth at 10 µM (COLO 205): 19.2%
inhibition of growth at 10 µM (HL-60(TB)): 22.7%
inhibition of growth at 10 µM (MCF7): 38.7%
inhibition of growth at 10 µM (OVCAR-3): 37.8%
inhibition of growth at 10 µM (NCI-H23): 42.6%
inhibition of growth at 10 µM (HT-29): 6.65%
inhibition of growth at 10 µM (MDA-MB-231): 19.9%
inhibition of growth at 10 µM (HCC 2998): 5.1%
